Measured values as given in ChEMBL document CHEMBL1152157, “Total synthesis and biological evaluation of potent analogues of dictyostatin: modification of the C2-C6 dienoate region” (Bioorg Med Chem Lett, 2008).
Calls of active or inactive are those of the source. No cut-off for these calls is given here.

Assays:
Assay type in all cases: functional, cell-based
ASPC1 = assay: Cytotoxicity against taxol-sensitive human AsPC1 cells after 72 hrs by MTT assay; details: ASPC1, 72 h
DLD-1 = assay: Cytotoxicity against taxol-sensitive human DLD1 cells after 72 hrs by MTT assay; details: DLD-1, 72 h
PANC-1 [1] = assay: Cytotoxicity against taxol-sensitive human PANC1 cells after 72 hrs by MTT assay; details: PANC-1, 72 h
PANC-1 [2] = assay: Induction of microtubule stabilization in human PANC1 cells assessed as formation of dense intracellular microtubule bundles
NCI/ADR-RES = assay: Cytotoxicity against taxol-resistant human NCI/ADR-RES cells after 72 hrs by MTT assay
PANC-1 [3] = assay: Cell cycle arrest in human PANC1 cells by accumulation in G2/M phase

Structure (SMILES) | IC50 (ASPC1) | IC50 (DLD-1) | IC50 (PANC-1 [1]) | Activity (PANC-1 [2]) | IC50 (NCI/ADR-RES) | Activity (PANC-1 [3])
C=C/C=C\[C@H](C)[C@@H]1OC(=O)/C=C\C=C\C[C@@H](O)C[C@H](O)/C=C\[C@H](C)[C@H](O)[C@@H](C)C[C@@H](C)CC[C@@H](O)[C@@H]1C | 56 nM | 8.1 nM | 17 nM | Active | 43 nM | Active
CC(=O)O[C@H]1C(=O)[C@@]2(C)[C@H]([C@H](OC(=O)c3ccccc3)[C@]3(O)C[C@H](OC(=O)[C@H](O)[C@@H](NC(=O)c4ccccc4)c4ccccc4)C(C)=C1C3(C)C)[C@]1(OC(C)=O)CO[C@@H]1C[C@@H]2O [PACLITAXEL] | 89 nM | 22 nM | 9.9 nM |  | 1300 nM | 
C=C/C=C\[C@H](C)[C@@H]1OC(=O)CCCC[C@@H](C)[C@@H](O)C[C@H](O)/C=C\[C@H](C)[C@H](O)[C@@H](C)C[C@@H](C)CC[C@@H](O)[C@@H]1C | 120 nM | 55 nM | 64 nM | Active | 130 nM | Active
C=C/C=C\[C@H](C)[C@@H]1OC(=O)CC/C=C/[C@@H](C)[C@@H](O)C[C@H](O)/C=C\[C@H](C)[C@H](O)[C@@H](C)C[C@@H](C)CC[C@@H](O)[C@@H]1C | 94 nM | 22 nM | 42 nM | Active | 66 nM | Active
C=C/C=C\[C@H](C)[C@H](OC(N)=O)[C@@H](C)[C@H](O)[C@@H](C)C/C(C)=C\[C@H](C)[C@@H](O)[C@@H](C)/C=C\[C@@H](O)C[C@@H]1OC(=O)[C@H](C)[C@@H](O)[C@H]1C [DISERMOLIDE] |  |  |  |  | 160 nM | 
C=C/C=C\[C@H](C)[C@@H]1OC(=O)/C=C\C=C\[C@@H](C)[C@@H](O)C[C@H](O)/C=C\[C@H](C)[C@H](O)[C@@H](C)C[C@@H](C)CC[C@@H](O)[C@@H]1C [DICTYOSTATIN] | 6.2 nM | 2.2 nM | 4.2 nM |  | 6.6 nM | 
